Results: patent US9273067B2, “Pyrazolopyrimidine macrocycles as inhibitors of human immunodeficiency virus replication” (BRISTOL-MYERS SQUIBB COMPANY, priority 2014, dated 2016)
Where two headings read alike, the source gives them in different places.

Test system: NL-RLuc virus (recombinant HIV NL4-3 with Renilla Luciferase) in MT-2 cells
Assay: Inhibition of HIV replication (NL-RLuc virus in MT-2 cells, luciferase readout)
Type: cell-based, human immunodeficiency virus (HIV)
Description: Inhibition of HIV Replication:
A recombinant NL-RLuc proviral clone was constructed in which a section of the nef gene from NL4-3 was replaced with the Renilla Luciferase gene. This virus is fully infectious and can undergo multiple cycles of replication in cell culture. In addition, the luciferous reporter provides a simple and easy method for quantitating the extent of virus growth and consequently, the antiviral activity of test compounds. The plasmid pNLRLuc contains the proviral NL-Rluc DNA cloned into pUC 18 at the PvuII site. The NL-RLuc virus was prepared by transfection of 293T cells with the plasmid pNLRLuc. Transfections were performed using the LipofectAMINE PLUS kit from Invitrogen (Carlsbad, Calif.) according to the manufacturer and the virus generated was titered in MT-2 cells. For susceptibility analyses, the titrated virus was used to infect MT-2 cells in the presence of compound, and after 5 days of incubation, cells were processed and quantitated for virus growth by the amount of expressed luciferase. Assay media was RPMI 1640 supplemented with 10% heat inactivated fetal bovine serum (FBS), 100 units/ml penicillin G/100 units/ml streptomycin, 10 mM HEPES buffer pH 7.55 and 2 mM L-glutamine. The results from at least 2 experiments were used to calculate the EC50 values. Luciferase was quantitated using the Dual Luciferase kit from Promega (Madison, Wis.). Susceptibility of viruses to compounds was determined by incubation in the presence of serial dilutions of the compound. The 50% effective concentration (EC50) was calculated by using the exponential form of the median effect equation where (Fa)=1/[1+(ED50/drug conc.)^m] (Johnson V A, Byington R T. Infectivity Assay. In Techniques in HIV Research. ed. Aldovini A, Walker B D. 71-76. New York: Stockton Press. 1990).

[1] = MT2, 120 h, NL-RLuc virus infecting MT-2 cells, 5 days of incubation, 10% FBS, luciferase quantitation, at least 2 experiments

Structure (SMILES) | EC50 [1] [nM] | other results
Cc1ccc2c(c1)CCCCOC1(C)CCN(CC1)c1c([C@H](OC(C)(C)C)C(=O)O)c(C)nc3cc(nn13)COC2 [Example 65, (2S)-2-(tert-Butoxy)-2-{4,16,24-trimethyl-11,23-dioxa-1,5,7,8-tetraazapentacyclo[22.2.2.1^6,^9.0^2,^7.0^13,^18]nonacosa-2,4,6(29),8,13(18),14,16-heptaen-3-yl}acetic acid] | 2 | 
Cc1nc2cc3nn2c(c1[C@H](OC(C)(C)C)C(=O)O)N1CCC(C)(CC1)OCCCCOc1cccc(c1)-c1cn(nn1)C3 [Example 6, (2S)-2-(tert-Butoxy)-2-{4,26-dimethyl-20,25-dioxa-1,5,7,8,11,12,13-heptaazahexacyclo[24.2.2.1^6,^9.1^11,^14.1^15,^19.0^2,^7]tritriaconta-2,4,6(33),8,12,14(32),15(31),16,18-nonaen-3-yl}acetic acid] | 80 | 
Cc1ccc2c(c1)O[C@@H](C)CCCCOC1(C)CCN(CC1)c1c([C@H](OC(C)(C)C)C(=O)O)c(C)nc3cc(nn13)CN(C1CC1)C2 [Example 64, (2S)-2-(tert-Butoxy)-2-[(20S)-11-cyclopropyl-4,16,20,26-tetramethyl-19,25-dioxa-1,5,7,8,11-pentaazapentacyclo[24.2.2.1^6,^9.0^2,^7.0^13,^18]hentriaconta-2,4,6(31),8,13(18),14,16-heptaen-3-yl]acetic acid] | 12 | 
Cc1nc2cc3nn2c(c1[C@H](OC(C)(C)C)C(=O)O)N1CCC(C)(CC1)OCCCCOC(CC(C)C)c1cn(nn1)C3 (stereo partly drawn) [Example 12, (2S)-2-(tert-Butoxy)-2-[4,22-dimethyl-15-(2-methylpropyl)-16,21-dioxa-1,5,7,8,11,12,13-heptaazapentacyclo[20.2.2.1^6,^9.1^11,^14.0^2,^7]octacosa-2,4,6(28),8,12,14(27)-hexaen-3-yl]acetic acid] | 136 | 
Cc1nc2cc3nn2c(c1[C@H](OC(C)(C)C)C(=O)O)N1CCC(C)(CC1)OCCCC[C@H](C)Oc1cc(Cl)ccc1COC3 [Example 35, (2S)-2-(tert-Butoxy)-2-[(20S)-16-chloro-4,20,26-trimethyl-11,19,25-trioxa-1,5,7,8-tetraazapentacyclo[24.2.2.1^6,^9.0^2,^7.0^13,^18]hentriaconta-2,4,6(31),8,13,15,17-heptaen-3-yl]acetic acid] | 2 | 
CCCC1CCCCOC2(C)CCN(CC2)c2c([C@H](OC(C)(C)C)C(=O)O)c(C)nc3cc(nn23)COCc2cc(F)ccc2O1 (stereo partly drawn) [Example 49, (2S)-2-(tert-butoxy)-2-{15-fluoro-4,26-dimethyl-20-propyl-11,19,25-trioxa-1,5,7,8-tetraazapentacyclo[24.2.2.1^6,^9.0^2,^7.0^13,^18]hentriaconta-2,4,6(31),8,13(18),14,16-heptaen-3-yl}acetic acid] |  | EC50 ({}): 5 nM
Cc1nc2cc3nn2c(c1[C@H](OC(C)(C)C)C(=O)O)N1CCC(C)(CC1)OCCCCc1cccc(c1)COC3 [Example 63, (2S)-2-(tert-Butoxy)-2-{4,23-dimethyl-11,22-dioxa-1,5,7,8-tetraazapentacyclo[21.2.2.1^6,^9.1^13,^17.0^2,^7]nonacosa-2,4,6(29),8,13(28),14,16-heptaen-3-yl}acetic acid] | 16 | 
Cc1nc2cc3nn2c(c1[C@H](OC(C)(C)C)C(=O)O)N1CCC(C)(CC1)OCCCCc1ccccc1C(=O)NC3 [Example 15, (2S)-2-(tert-Butoxy)-2-{4,24-dimethyl-12-oxo-23-oxa-1,5,7,8,11-pentaazapentacyclo[22.2.2.1^6,^9.0^2,^7.0^13,^18]nonacosa-2,4,6(29),8,13(18),14,16-heptaen-3-yl}acetic acid] | 120 | 
Cc1ccc2c(c1)O[C@@H](C)C/C=C/COC1(C)CCN(CC1)c1c([C@H](OC(C)(C)C)C(=O)O)c(C)nc3cc(nn13)COC2 [Example 37, (2S)-2-(tert-Butoxy)-2-[(20S,22E)-4,16,20,26-tetramethyl-11,19,25-trioxa-1,5,7,8-tetraazapentacyclo[24.2.2.1^6,^9.0^2,^7.0^13,^18]hentriaconta-2,4,6(31),8,13(18),14,16,22-octaen-3-yl]acetic acid] |  | EC50 (NL-RLuc virus infecting MT-2 cells, 5 days of incubation, 10% FBS, luciferase quantitation, at least 2 experiments, read-out: EC50): 4 nM
